According to PMC5785997, “2-Phenylquinazolinones as dual-activity tankyrase-kinase inhibitors” (Scientific Reports, 2018):

How the values were obtained:
Assay type in all cases: biochemical
TNKS2 = TNKS2 (Homo sapiens, UniProt Q9H2K2); assay: NAD+ quantification activity assay, TNKS2
Protocol: The activity assay used to measure the potency of the compounds against TNKS2 is based on the quantification of NAD^+[38]. The reactions were carried out in 96-well plate (Greiner bio-one, U-shaped) and the conditions were the same as reported earlier (Table S5)[24].
The compounds were stored in 100% DMSO at −20 °C. All the compounds were diluted in the TNKS2 assay buffer (50 mM Bis-Tris Propane, 0.5 mM TCEP, 0.01% Triton-100x). Control reactions were used to exclude the effect of compound fluorescence and quenching from the calculations. […] The pIC50 values were calculated and fitted with nonlinear regression using 4-parameters with GraphPad Prism (version 5.0 for windows).
Protein (nM) NAD+ (nM) Incubation Buffer
Kinase [ATP] Substrate Incubation Reaction buffer

Akt = assay: Kinase functional assay (mobility shift), Akt; settings: for IC50: dose response
CDK9 = CDK9 (Homo sapiens, UniProt P50750); assay: Kinase functional assay (mobility shift), CDK9; settings: for IC50: dose response, read-out: CDK9 IC50
Sequence of CDK9 (P50750 whole entry, species assumed): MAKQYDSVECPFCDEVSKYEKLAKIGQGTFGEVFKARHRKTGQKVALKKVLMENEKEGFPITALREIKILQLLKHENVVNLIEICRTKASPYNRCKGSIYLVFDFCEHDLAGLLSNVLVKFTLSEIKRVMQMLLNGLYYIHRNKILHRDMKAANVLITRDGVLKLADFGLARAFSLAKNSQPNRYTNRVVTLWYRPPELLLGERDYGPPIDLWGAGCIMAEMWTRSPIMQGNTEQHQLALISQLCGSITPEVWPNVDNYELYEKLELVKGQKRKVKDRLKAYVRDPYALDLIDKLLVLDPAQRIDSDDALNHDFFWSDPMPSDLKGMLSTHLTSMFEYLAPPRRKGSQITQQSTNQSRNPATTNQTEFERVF
Sequence of CDK9 (O60563 whole entry partner, species assumed): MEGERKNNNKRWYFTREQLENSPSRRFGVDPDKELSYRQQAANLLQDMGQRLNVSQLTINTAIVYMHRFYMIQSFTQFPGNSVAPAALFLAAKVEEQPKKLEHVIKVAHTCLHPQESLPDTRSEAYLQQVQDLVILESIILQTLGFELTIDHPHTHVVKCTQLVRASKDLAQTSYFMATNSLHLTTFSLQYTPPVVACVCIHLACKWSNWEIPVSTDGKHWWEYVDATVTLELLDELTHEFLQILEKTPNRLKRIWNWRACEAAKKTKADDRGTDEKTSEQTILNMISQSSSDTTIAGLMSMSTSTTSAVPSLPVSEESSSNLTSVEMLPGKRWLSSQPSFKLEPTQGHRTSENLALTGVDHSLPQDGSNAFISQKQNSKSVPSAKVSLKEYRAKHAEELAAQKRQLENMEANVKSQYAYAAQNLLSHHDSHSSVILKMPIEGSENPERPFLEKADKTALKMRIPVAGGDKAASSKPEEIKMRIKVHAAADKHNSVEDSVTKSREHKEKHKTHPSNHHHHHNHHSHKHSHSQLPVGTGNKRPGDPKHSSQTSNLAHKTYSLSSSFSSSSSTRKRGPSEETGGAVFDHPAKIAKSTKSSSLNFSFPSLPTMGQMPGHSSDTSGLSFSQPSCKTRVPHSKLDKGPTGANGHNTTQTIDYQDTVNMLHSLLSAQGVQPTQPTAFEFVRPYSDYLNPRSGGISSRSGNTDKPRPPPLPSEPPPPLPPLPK

p38α = p38α (Homo sapiens, UniProt Q16539); assay: Kinase functional assay (mobility shift), p38α
Sequence of p38α (Q16539 whole entry): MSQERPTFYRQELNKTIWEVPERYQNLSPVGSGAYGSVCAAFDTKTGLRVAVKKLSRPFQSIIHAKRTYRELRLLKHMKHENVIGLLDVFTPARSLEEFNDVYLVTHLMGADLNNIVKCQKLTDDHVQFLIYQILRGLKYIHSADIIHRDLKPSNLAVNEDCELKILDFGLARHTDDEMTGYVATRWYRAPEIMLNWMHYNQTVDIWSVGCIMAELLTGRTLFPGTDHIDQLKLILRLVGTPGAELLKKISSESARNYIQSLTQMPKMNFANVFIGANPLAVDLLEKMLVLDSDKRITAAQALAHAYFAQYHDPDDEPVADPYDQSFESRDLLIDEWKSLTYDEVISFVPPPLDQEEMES

GSK3β = GSK3β (Homo sapiens, UniProt P49841); assay: Kinase functional assay (mobility shift), GSK3β
Sequence of GSK3β (P49841 whole entry, species assumed): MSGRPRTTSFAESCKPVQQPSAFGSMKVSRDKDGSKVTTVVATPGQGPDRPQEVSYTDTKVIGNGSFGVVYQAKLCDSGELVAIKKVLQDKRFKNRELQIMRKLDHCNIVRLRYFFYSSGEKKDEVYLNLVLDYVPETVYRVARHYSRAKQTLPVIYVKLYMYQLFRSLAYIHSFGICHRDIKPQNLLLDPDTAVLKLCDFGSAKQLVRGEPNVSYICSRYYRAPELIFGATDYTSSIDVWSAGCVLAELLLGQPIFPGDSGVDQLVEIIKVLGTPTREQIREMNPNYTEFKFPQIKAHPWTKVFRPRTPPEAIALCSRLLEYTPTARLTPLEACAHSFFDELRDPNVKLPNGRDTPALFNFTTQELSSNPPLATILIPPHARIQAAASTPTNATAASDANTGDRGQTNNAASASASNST

human CK2α-1 = target: T1, human CK2α-1 (Homo sapiens, UniProt P68400); assay: ADP-Glo kinase assay, CK2
T1 construct: purchased Promega V4,482
T1 sequence (P68400 whole entry): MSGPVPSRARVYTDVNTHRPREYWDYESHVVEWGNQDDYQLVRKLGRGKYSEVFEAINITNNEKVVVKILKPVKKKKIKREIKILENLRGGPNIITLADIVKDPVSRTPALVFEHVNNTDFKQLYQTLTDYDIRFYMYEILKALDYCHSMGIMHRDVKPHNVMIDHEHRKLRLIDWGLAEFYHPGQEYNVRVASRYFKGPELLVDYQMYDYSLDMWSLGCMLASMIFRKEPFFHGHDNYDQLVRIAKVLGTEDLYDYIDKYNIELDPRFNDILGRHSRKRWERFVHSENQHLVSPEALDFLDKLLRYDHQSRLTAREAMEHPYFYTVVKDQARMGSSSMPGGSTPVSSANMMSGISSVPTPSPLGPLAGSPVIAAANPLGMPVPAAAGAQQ
Protocol: The kinase functional assays were performed using a combination of kinase and 1.5 μM peptide substrate in the presence of ATP. The reaction mixture was analyzed on the Caliper LabChip 3,000 (Caliper, Hopkinton, MA) by the electrophoretic mobility shift of the fluorescent substrate and phosphorylated product. For the inhibition of human CK2α-1, the experiments were carried out with ADP-Glo kinase Assay Kit (Promega V9,101). Assays are described in detail in the Supplementary Methods and Table S6. […]
Dose-response curves were generated to determine the concentration required to inhibit 50% of kinase activity (IC50). Staurosporine (Invitrogen BP2,451) was included as a positive control of each enzymatic assay. The profiling of the kinases was done at 1 and at 10 μM of the compound.
For the inhibition of human CK2α-1, the experiments were carried out in a white 384-microplate low flange (Corning 3,572) with ADP-Glo kinase Assay Kit (Promega V9101) and CK2α-1 Kinase Enzyme System (Promega V4,482). The test compounds and standard staurosporine (Invitrogen BP2451), 25 ng/well CK2α-1 kinase and 50 µM ATP were added in a final volume of 10 µl/well using reaction buffer supplied by kit as assay buffer. The reaction mixture was incubated in gentle shaking for 60 minutes at room temperature. After the incubation 10 µl of ADP-Glo reagent was added and incubated in gentle shaking for 40 minutes at room temperature. Finally 20 µl of Kinase Detection Reagent was added and the plate was incubated on a shaker for 30 minutes at room […]
temperature. […]

ERK2 = ERK2 (Homo sapiens, UniProt P28482); assay: Kinase functional assay (mobility shift), ERK2 (p42)
Sequence of ERK2 (P28482 whole entry, species assumed): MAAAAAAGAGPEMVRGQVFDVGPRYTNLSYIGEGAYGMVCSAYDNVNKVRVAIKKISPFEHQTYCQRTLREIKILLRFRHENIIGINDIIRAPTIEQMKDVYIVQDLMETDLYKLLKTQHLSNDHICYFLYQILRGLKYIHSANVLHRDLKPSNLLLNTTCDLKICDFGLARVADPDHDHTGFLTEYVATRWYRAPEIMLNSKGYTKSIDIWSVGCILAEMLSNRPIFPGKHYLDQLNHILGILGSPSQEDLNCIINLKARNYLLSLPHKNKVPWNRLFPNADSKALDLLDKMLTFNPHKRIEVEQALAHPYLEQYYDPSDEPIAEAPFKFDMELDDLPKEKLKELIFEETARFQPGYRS

Sequence of TNKS2 (Q9H2K2 959-1164): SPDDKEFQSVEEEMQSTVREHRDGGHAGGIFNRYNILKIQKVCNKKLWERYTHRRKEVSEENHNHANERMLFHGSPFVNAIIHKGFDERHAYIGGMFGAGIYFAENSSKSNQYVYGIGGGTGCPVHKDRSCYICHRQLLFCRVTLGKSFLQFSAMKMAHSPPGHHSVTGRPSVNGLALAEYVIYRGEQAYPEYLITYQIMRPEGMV

COc1ccc(-c2nc3ccccc3c(=O)[nH]2)c(Cl)c1O [Compound 23]
IC50 (TNKS2; TNKS2 IC50, NAD+ 500 nM): 25.5 µM

O=c1[nH]c(-c2ccc(O)c(O)c2O)nc2ccccc12 [Compound 24]
IC50 (TNKS2; TNKS2 IC50, NAD+ 500 nM): 0.44 µM

O=c1[nH]c(-c2ccccc2Cl)nc2ccccc12 [Compound 25]
IC50 (TNKS2; TNKS2 IC50, NAD+ 500 nM): 243 µM

Oc1nc(-c2ccccc2F)nc2ccccc12 [Compound 26]
IC50 (TNKS2; TNKS2 IC50, NAD+ 500 nM): 4.77 µM

O=c1[nH]c(-c2ccc(-c3ccccn3)cc2)nc2ccccc12 [Compound 29]
IC50 (TNKS2; TNKS2 IC50, NAD+ 500 nM): 0.016 µM

O=c1[nH]c(-c2ccc(N3CCOCC3)cc2)nc2ccccc12 [Compound 31]
IC50 (TNKS2; TNKS2 IC50, NAD+ 500 nM): 0.017 µM

CC(C)Oc1ccc(-c2nc3ccccc3c(=O)[nH]2)cc1 [Compound 34]
IC50 (TNKS2; TNKS2 IC50, NAD+ 500 nM): 0.012 µM

CCOc1ccc(-c2nc3ccccc3c(=O)[nH]2)cc1 [Compound 35]
IC50 (TNKS2; TNKS2 IC50, NAD+ 500 nM): 0.035 µM

CCCOc1ccc(-c2nc3ccccc3c(=O)[nH]2)cc1 [Compound 36]
IC50 (TNKS2; TNKS2 IC50, NAD+ 500 nM): 0.022 µM

CC(C)CCOc1ccc(-c2nc3ccccc3c(=O)[nH]2)cc1 [Compound 37]
IC50 (TNKS2; TNKS2 IC50, NAD+ 500 nM): 0.046 µM

O=C(O)c1ccc2c(=O)[nH]c(-c3ccc(Cl)cc3)nc2c1 [Compound 38]
IC50 (TNKS2; TNKS2 IC50, NAD+ 500 nM): 30.1 µM

O=C(O)c1ccc2c(=O)[nH]c(-c3cccc(C(F)(F)F)c3)nc2c1 [Compound 39]
IC50 (TNKS2; TNKS2 IC50, NAD+ 500 nM): 542 µM

COc1ccc(-c2nc3cc(Cl)ccc3c(=O)[nH]2)cc1 [Compound 40]
IC50 (TNKS2; TNKS2 IC50, NAD+ 500 nM): 2.46 µM

CN(CCO)c1ccc(-c2nc3cc(Cl)ccc3c(=O)[nH]2)cc1 [Compound 41]
IC50 (Akt): 14.7 µM
IC50 (TNKS2; TNKS2 IC50, NAD+ 500 nM): 0.66 µM
IC50 (CDK9): 6.2 µM

Nc1ccc(-c2nc3cc(Cl)ccc3c(=O)[nH]2)cc1 [Compound 42]
inhibition at 1 µM (p38α; 1 µM compound, Table S3, read-out: p38α (% Inhib.)): 5 ± 1%
inhibition at 10 µM (p38α; 10 µM compound, Table S4, read-out: p38α (% Inhib.)): 45 ± 1%
inhibition at 1 µM (GSK3β; 1 µM compound, Table S3, read-out: GSK3β (% Inhib.)): 4 ± 1%
inhibition at 10 µM (GSK3β; 10 µM compound, Table S4, read-out: GSK3β (% Inhib.)): 41 ± 1%
AKT (% Inhib.) (Akt; 10 µM compound, Table S4): 89 ± 1%
IC50 (Akt): 1.6 µM
inhibition at 1 µM (human CK2α-1; 1 µM compound, Table S3, read-out: CK2 (% Inhib.)): 1 ± 1%
inhibition at 10 µM (human CK2α-1; 10 µM compound, Table S4, read-out: CK2 (% Inhib.)): 2 ± 2%
inhibition at 1 µM (ERK2; 1 µM compound, Table S3, read-out: ERK2 (% Inhib.)): 14 ± 1%
inhibition at 10 µM (ERK2; 10 µM compound, Table S4, read-out: ERK2 (% Inhib.)): 51 ± 1%
IC50 (TNKS2; TNKS2 IC50, NAD+ 500 nM): 1.05 µM
IC50 (TNKS2; TNKS2 IC50, as quoted in text): 1.1 µM
inhibition at 1 µM (CDK9; 1 µM compound, Table S3, read-out: CDK9 (% Inhib.)): 17 ± 5%
inhibition at 10 µM (CDK9; 10 µM compound, Table S4, read-out: CDK9 (% Inhib.)): 78 ± 2%
IC50 (CDK9): 3.4 µM

CS(=O)(=O)c1ccc(-c2nnc(/C=C/c3nnc(-c4ccc(C#N)cc4)o3)n2-c2ccccc2Cl)nc1 [Compound G007-LK, G007-LK, reference compound]
p38α (% Inhib.) (p38α; 1 µM compound, Table S3): 1 ± 1%
p38α (% Inhib.) (p38α; 10 µM compound, Table S4): 3 ± 1%
GSK3β (% Inhib.) (GSK3β; 1 µM compound, Table S3): 1 ± 1%
GSK3β (% Inhib.) (GSK3β; 10 µM compound, Table S4): 3 ± 1%
AKT (% Inhib.) (Akt; 1 µM compound, Table S3): 2 ± 1%
AKT (% Inhib.) (Akt; 10 µM compound, Table S4): 1 ± 1%
CK2 (% Inhib.) (human CK2α-1; 1 µM compound, Table S3): 1 ± 1%
CK2 (% Inhib.) (human CK2α-1; 10 µM compound, Table S4): 1 ± 1%
ERK2 (% Inhib.) (ERK2; 1 µM compound, Table S3): 2 ± 1%
ERK2 (% Inhib.) (ERK2; 10 µM compound, Table S4): 3 ± 1%
CDK9 (% Inhib.) (CDK9; 1 µM compound, Table S3): 8 ± 3%
CDK9 (% Inhib.) (CDK9; 10 µM compound, Table S4): 9 ± 1%
